Measurements: patent publication US11492405B2, “Reducing systemic regulatory t cell levels or activity for treatment of disease and injury of the CNS” (Yeda Research and Development Co. Ltd, priority 2014, dated 2022)
Entries after “also recorded” stand apart in the source; their conditions may differ.

How the values were obtained:
Type in all cases: in vivo, mouse
5XFAD AD-Tg mice [1] = experiment: RT-qPCR of hippocampus / brain parenchyma in 5XFAD AD-Tg mice
Experimental: (§1) Total RNA of the hippocampal dentate gyrus (DG) was extracted with TRI Reagent (Molecular Research Center) and purified from the lysates using an RNeasy Kit (Qiagen). Total RNA of the choroid plexus was extracted using an RNA MicroPrep Kit (Zymo Research). mRNA (1 μg) was converted into cDNA using a High Capacity cDNA Reverse Transcription Kit (Applied Biosystems). The expression of specific mRNAs was assayed using fluorescence-based quantitative real-time PCR (RT-qPCR). RT-qPCR reactions were performed using Fast-SYBR PCR Master Mix (Applied Biosystems). Quantification reactions were performed in triplicate for each sample using the standard curve method. Peptidylprolyl isomerase A (ppia) was chosen as a reference (housekeeping) gene. The amplification cycles were 95° C. for 5 s, 60° C. for 20 s, and 72° C. for 15 s. At the end of the assay, a melting curve was constructed to evaluate the specificity of the reaction. For ifn-γ and ppia gene analysis, the cDNA was pre-amplified in 14 PCR cycles with non-random PCR primers, thereby increasing the sensitivity of the subsequent real-time PCR analysis, according to the manufacturer's protocol (PreAmp Master Mix Kit; Applied Biosystems). mRNA expression was determined using TaqMan RT-qPCR, according to the manufacturer's instructions (Applied Biosystems). All RT-qPCR reactions were performed and analyzed using StepOne software V2.2.2 (Applied Biosystems). The following TaqMan Assays-on-Demand™ probes were used: Mm02342430_g1 (ppia) and Mm01168134_m1 (ifn-γ).
For all other genes examined, the following primers were used: […]

5XFAD AD-Tg mice [2] = experiment: Immune cell / mo-Mϕ infiltration of brain in 5XFAD AD-Tg mice (flow cytometry, BM chimeras)
Experimental: Tissue processing and immunohistochemistry were performed on paraffin embedded sectioned mouse (6 μm thick) and human (10 μm thick) brains. For human ICAM-1 staining, primary mouse anti-ICAM (1:20 Abcam; ab2213) antibody was used. Slides were incubated for 10 min with 3% H2O2, and a secondary biotin-conjugated anti-mouse antibody was used, followed by biotin/avidin amplification with Vectastain ABC kit (Vector Laboratories). Subsequently, 3,3′-diaminobenzidine (DAB substrate) (Zytomed kit) was applied; slides were dehydrated and mounted with xylene-based mounting solution. For tissue stainings, mice were transcardially perfused with PBS prior to tissue excision and fixation. CP tissues were isolated under a dissecting microscope (Stemi DV4; Zeiss) from the lateral, third, and fourth ventricles of the brain. For whole mount CP staining, tissues were fixated with 2.5% paraformaldehyde (PFA) for 1 hour at 4° C., and subsequently transferred to PBS containing 0.05% sodium azide. Prior to staining, the dissected tissues were washed with PBS and blocked (20% horse serum, 0.3% Triton X-100, and PBS) for 1 h at room temperature. Whole mount staining with primary antibodies (in PBS containing 2% horse serum and 0.3% Triton X-100), or secondary antibodies, was performed for 1 h at room temperature. Each step was followed by three washes in PBS. The tissues were applied to slides, mounted with Immu-mount (9990402, from Thermo Scientific), and sealed with cover-slips. For staining of sectioned brains, two different tissue preparation protocols (paraffin embedded or microtomed free-floating sections) were applied, as previously described (Baruch et al, 2013; Kunis et al, 2013). The following primary antibodies were used: mouse anti-Aβ (1:300, Covance, #SIG-39320); rabbit anti-GFP (1:100, MBL, #598); rat anti-CD68 (1:300, eBioscience, #14-0681); rat anti-ICAM-1 (1:200, Abcam, #AB2213); goat anti-GFP (1:100, Abcam, #ab6658); rabbit anti-IBA-1 (1:300, Wako, #019-19741); goat anti-IL-10 (1:20, R&D systems, #AF519); rat anti-Foxp3 (1:20, eBioscience, #13-5773-80); rabbit anti-CD3 (1:500, Dako, #IS503); mouse anti-ZO-1, mouse anti-E-Cahedrin, and rabbit anti-Claudin-1 (all 1:100, Invitrogen, #33-9100, #33-4000, #51-9000); rabbit anti-GFAP (1:200, Dako, #Z0334). […] Microscopic analysis, was performed using a fluorescence microscope (E800; Nikon) or laser-scanning confocal microscope (Carl Zeiss, Inc.). The fluorescence microscope was equipped with a digital camera (DXM 1200F; Nikon), and with either a 20×NA 0.50 or 40×NA 0.75 objective lens (Plan Fluor; Nikon). […] For quantification of staining intensity, total cell and background staining was measured using ImageJ software (NIH), and intensity of specific staining was calculated, as previously described (Burgess et al, 2010). […]

5XFAD AD-Tg mice [3] = experiment: RT-qPCR of choroid plexus (CP) in 5XFAD AD-Tg mice
Experimental: as §1, with “At the end of the assay, a melting curve was constructed to evaluate the specificity of the reaction.” left out, “The following TaqMan Assays-on-Demand™ probes were used: Mm02342430_g1 (ppia) and Mm01168134_m1 (ifn-γ).” left out

[4] = AD-Tg/Foxp3-DTR+ mice, 3 weeks after last DTx injection
[5] = weekly-GA vs untreated AD-Tg mice, age 6 m

Row | Substance | foxp3 and il10 mRNA expression in hippocampus (5XFAD AD-Tg mice [1]; [4]) | mRNA expression of pro-inflammatory cytokines il-12p40 and tnf-α in brain parenchyma (5XFAD AD-Tg mice [1]; [4]) | Foxp3+ Tregs among CD4+ T cells accumulated within the brain (5XFAD AD-Tg mice [2]; [4]) | numbers of CD45high/CD11bhigh mo-Mϕ and CD4+ T cells in brain parenchyma (5XFAD AD-Tg mice [2]; [4]) | CP mRNA expression of leukocyte trafficking molecules (icam1, cxcl10, ccl2) (5XFAD AD-Tg mice [3]; AD-Tg/DTR+ vs DTx-treated AD-Tg/DTR− littermates, 1 day after last DTx injection) | neuroinflammation (hippocampal mRNA) (5XFAD AD-Tg mice [1]; weekly-GA 100 μg s.c. over 4 weeks, 5XFAD AD-Tg mice) | hippocampal mRNA expression of anti-inflammatory cytokines IL-10 and TGF-β (5XFAD AD-Tg mice [1]; [5]) | hippocampal mRNA expression of neurotropic factors IGF-1 and BDNF (5XFAD AD-Tg mice [1]; [5]) | hippocampal mRNA expression of pro-inflammatory cytokines TNF-α, IL-1β and IL-12p40 (5XFAD AD-Tg mice [1]; [5]) | numbers of CD11bhighCD45high-expressing cells in hippocampus (5XFAD AD-Tg mice [2]; 2nd week of weekly-GA regimen, non-chimeric AD-Tg mice) | homing of GFP+ mo-Mϕ to the CP and adjacent ventricular spaces (5XFAD AD-Tg mice [2]; weekly-GA vs vehicle, AD-Tg/CX3CR1GFP/+ BM chimeras) | CP epithelial expression of leukocyte trafficking molecules (icam1, cxcl10, ccl2) (5XFAD AD-Tg mice [3]; weekly-GA, end of 1st or 4th week)
1 | Diphtheria toxin [DTx] | increased expression | reduced mRNA expression levels | marked enrichment | increased numbers; also recorded: elevated numbers | elevated mRNA expression |  |  |  |  |  |  | 
2 | Glatiramer acetate [GA] |  |  |  |  |  | reduced neuroinflammation | elevation | elevation | reduced expression | increased numbers | increased homing | upregulated
